Assay results taken from PMC4182912 (Journal of medicinal chemistry, 2008).

Columns and labels:
[1] = test system: P-glycoprotein (P-gp) efflux pumps; details: cited from earlier work
[2] = molecular target: recombinant hCB1r (Homo sapiens, UniProt P21554); assay type: biochemical
Chain of recombinant hCB1r (P21554 whole entry): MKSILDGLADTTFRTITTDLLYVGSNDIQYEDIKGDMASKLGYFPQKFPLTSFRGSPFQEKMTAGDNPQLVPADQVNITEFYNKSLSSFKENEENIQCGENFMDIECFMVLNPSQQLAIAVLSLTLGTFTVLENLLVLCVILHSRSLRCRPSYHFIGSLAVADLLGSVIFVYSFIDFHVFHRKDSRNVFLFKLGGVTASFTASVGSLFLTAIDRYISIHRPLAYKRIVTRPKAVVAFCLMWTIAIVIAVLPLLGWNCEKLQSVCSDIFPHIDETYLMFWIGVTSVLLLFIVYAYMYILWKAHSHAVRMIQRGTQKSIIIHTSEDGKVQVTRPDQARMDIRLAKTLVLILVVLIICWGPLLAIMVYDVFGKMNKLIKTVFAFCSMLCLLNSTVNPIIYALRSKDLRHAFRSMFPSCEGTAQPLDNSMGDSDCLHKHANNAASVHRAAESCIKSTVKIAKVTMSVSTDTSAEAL

| SMILES | substrate behavior for P-gp efflux pumps [1] | eudismic ratio (CB1 receptor affinity, (-)- vs (+)-enantiomer) [2] |
| --- | --- | --- |
| CN=C(NS(=O)(=O)c1ccc(Cl)cc1)N1C[C@H](c2ccccc2)C(c2ccc(Cl)cc2)=N1 [Ligand 3, (4S)-3-(4-chlorophenyl)-N-methyl-N’-[(4-chlorophenyl)sulfonyl]-4-phenyl-4,5-dihydro-1H-pyrazole-1-carboxamidine] | little to no substrate behavior | – |
| N#Cc1ccc(S(=O)(=O)N=C(N)N2CC(c3ccccc3)C(c3ccc(Cl)cc3)=N2)cc1 (stereo not drawn) [Ligand 12a, 3-(4-Chlorophenyl)-N’-[(4-cyanophenyl)sulfonyl]-4-phenyl-4,5-dihydro-1H-pyrazole-1-carboxamidine] | – | about 35 |
| NC(=NS(=O)(=O)c1ccc(I)cc1)N1CC(c2ccccc2)C(c2ccc(Cl)cc2)=N1 (stereo not drawn) [Ligand 12c, 3-(4-Chlorophenyl)-N’-[(4-iodophenyl)sulfonyl]-4-phenyl-4,5-dihydro-1H-pyrazole-1-carboxamidine] | – | ~56 |
